# Measured values taken from paper PMC4686731, “Screening of Pharmacologically Active Small Molecule Compounds Identifies Antifungal Agents Against Candida Biofilms” (Frontiers in Microbiology, 2015).
# Like-named read-outs stand apart in the source and are kept apart here.
# Key:
# [1] = tested on: C. albicans SC5314; assay: AST broth microdilution, high cell density planktonic mode; type: cell-based, Candida albicans; details: Candida albicans, SC5314, 24 h, read-out: Minimum inhibitory concentration (MIC)
# Experimental: (§1) The in vitro susceptibility of well-characterized wild-type C. albicans strain SC5314, which was provided by Prof. N.A.R. Gow (University of Aberdeen, Aberdeen, UK) was tested against 1280 compounds from the Library of Pharmacologically Active Compounds (LOPAC^1280TM, Sigma–Aldrich, USA). The screen was performed with C. albicans SC5314, and hits were further confirmed with the type strains C. dubliniensis MYA 577, C. glabrata ATCC 2001, C. kusei ATCC 6258, C. palapsilosis ATCC 22019, and C. tropicalis ATCC13803.
# (§2) To investigate the antifungal effects of the hit compounds, ASTs were conducted using broth microdilution assays with high cell densities of the planktonic mode, adhesion phase and biofilm mode against Candida strains (C. albicans, C. dubliniensis, C. glabrata, C. kusei, C. palapsilosis, and C. tropicalis). First, high density cell (1 × 10^7 cells/mL) suspensions were added to the RPMI medium containing each hit compound (10–1000 μM) in 96-well plates and incubated at 37°C for 24 h. Next, the 50% minimum inhibitory concentrations (MICs) of high-density Candida planktonic cultures were determined using the CellTiter-Glo luminescent cell viability kit, as described above. The antifungal effects of the hit compounds were also evaluated in the adhesion phase and the biofilm mode, in the same manner as the planktonic mode. Candida biofilms were produced as described previously ([Jin et al., 2004]). In brief, Candida cells were grown on SDA at 37°C for 18 h. A loopful of the yeast culture was then inoculated into yeast nitrogen base (YNB) (Difco, USA) medium supplemented with 50 mM glucose. After overnight broth culture in a rotary shaker at 75 rpm, the cells were washed twice with 20 mL of PBS (pH 7.2, 0.1 M). The yeast cells were re-suspended in YNB supplemented with 100 mM glucose and adjusted to an optical density of 0.38 (1 × 10^7 cells/mL) at 520 nm. This standardized cell suspension was used immediately to form biofilms in the wells of 96-well polystyrene culture plates (Iwaki, Tokyo, Japan). First, the cells were incubated for 90 min at 37°C in a shaker at 75 rpm to allow yeast adherence to the well surface (adhesion phase), before the medium was aspirated and each well was washed once with PBS to remove non-adherent cells. YNB containing 100 mM glucose was then pipetted into each well and the plate was incubated at 37°C in a shaker at 75 rpm for 24 h. Non-adherent cells were removed by pipetting and the biofilms were washed twice with PBS. Following this biofilm growth phase, microscopic examination of the cultures was performed to exclude contamination. These ASTs were repeated on three different occasions.
# [2] = tested on: C. dubliniensis MYA 577 biofilm; assay: AST, biofilm mode; type: cell-based; details: Candida dubliniensis, MYA577BIOFILM, read-out: Minimum inhibitory concentration (MIC)
# Experimental: as §1, §2
# [3] = tested on: C. palapsilosis ATCC 22019 biofilm; assay: AST, biofilm mode; type: cell-based; details: read-out: Minimum inhibitory concentration (MIC)
# Experimental: as §1, §2
# [4] = tested on: C. glabrata ATCC 2001 biofilm; assay: AST, biofilm mode; type: cell-based; details: Nakaseomyces glabratus, read-out: Minimum inhibitory concentration (MIC)
# Experimental: as §1, §2
# [5] = tested on: C. albicans SC5314 biofilm; assay: AST, biofilm mode; type: cell-based; details: Candida albicans, read-out: Minimum inhibitory concentration (MIC)
# Experimental: as §1, §2
# [6] = tested on: C. tropicalis ATCC13803 biofilm; assay: AST, biofilm mode; type: cell-based; details: Candida tropicalis, read-out: Minimum inhibitory concentration (MIC)
# Experimental: as §1, §2
# [7] = tested on: C. kusei ATCC 6258 biofilm; assay: AST, biofilm mode; type: cell-based; details: read-out: Minimum inhibitory concentration (MIC)
# Experimental: as §1, §2
# [8] = tested on: C. kusei ATCC 6258; assay: AST broth microdilution, high cell density planktonic mode; type: cell-based; details: 24 h, read-out: Minimum inhibitory concentration (MIC)
# Experimental: as §1, §2
# [9] = tested on: C. tropicalis ATCC13803; assay: as above; type: cell-based; details: Candida tropicalis, read-out: Minimum inhibitory concentration (MIC)
# Experimental: as §1, §2
# [10] = tested on: C. glabrata ATCC 2001; assay: as above; type: cell-based; details: Nakaseomyces glabratus, read-out: Minimum inhibitory concentration (MIC)
# Experimental: as §1, §2
# [11] = tested on: C. dubliniensis MYA 577; assay: as above; type: cell-based; details: Candida dubliniensis, read-out: Minimum inhibitory concentration (MIC)
# Experimental: as §1, §2
# [12] = tested on: C. palapsilosis ATCC 22019; assay: as above; type: cell-based; details: 24 h, read-out: Minimum inhibitory concentration (MIC)
# Experimental: as §1, §2
# [13] = 50% MIC, planktonic mode, 1 × 10^7 cells/mL, 24 h
# [14] = ATCC2001, biofilm mode (24 h biofilm)
# [15] = SC5314, biofilm mode (24 h biofilm)
# [16] = ATCC13803, biofilm mode (24 h biofilm)
# [17] = 50% MIC, planktonic mode, 1 × 10^7 cells/mL
# [18] = ATCC13803, 50% MIC, planktonic mode, 1 × 10^7 cells/mL, 24 h
# [19] = ATCC2001, 50% MIC, planktonic mode, 1 × 10^7 cells/mL, 24 h
# [20] = MYA577, 50% MIC, planktonic mode, 1 × 10^7 cells/mL, 24 h
SMILES,"MIC [1, 13] [µM]",MIC ([2]; biofilm mode (24 h biofilm)) [µM],MIC ([3]; biofilm mode (24 h biofilm)) [µM],"MIC [4, 14] [µM]","MIC [5, 15] [µM]","MIC [6, 16] [µM]",MIC ([7]; biofilm mode (24 h biofilm)) [µM],"MIC [8, 17] [µM]","MIC [9, 18] [µM]","MIC [10, 19] [µM]","MIC [11, 20] [µM]","MIC [12, 17] [µM]",also measured
"C[n+]1cc2c3c(ccc2c2ccc4cc5c(cc4c21)OCO5)OCO3 [Sanguinarine, Sanguinarine chloride hydrate]",–,–,–,–,–,–,–,–,–,–,–,–,"MIC [1]: < 1 µM; MIC ([2]; 24 h): 15.6 µM; MIC ([3]; 24 h): 7.8 µM; MIC ([4]; ATCC2001, 24 h): 15.6 µM; MIC ([5]; SC5314, 24 h): 15.6 µM; MIC ([6]; ATCC13803, 24 h): 31.3 µM; MIC ([7]; 24 h): 31.3 µM; MIC [8]: < 1 µM; MIC ([9]; ATCC13803, 24 h): < 1 µM; MIC ([10]; ATCC2001, 24 h): < 1 µM; MIC ([11]; MYA577, 24 h): < 1 µM; MIC [12]: < 1 µM"
Cc1c2ccncc2c(C)c2c1[nH]c1ccccc12 [Ellipticine],7.8,500,250,62.5,125,250,250,7.8,15.6,7.8,3.9,7.8,–
Cc1ccc(S(=O)(=O)/C=C/C#N)cc1 [Bay11-7082],7.8,31.3,15.6,62.5,31.3,62.5,62.5,3.9,7.8,7.8,3.9,3.9,–
CC(C)(C)c1ccc(S(=O)(=O)/C=C/C#N)cc1 [Bay11-7085],3.9,62.5,15.6,62.5,31.3,62.5,62.5,3.9,3.9,3.9,3.9,3.9,–
